Our source for the inhibition values is ChEMBL document CHEMBL4265965, “Dichloroacetophenones targeting at pyruvate dehydrogenase kinase 1 with improved selectivity and antiproliferative activity: Synthesis and structure-activity relationships” (Bioorg Med Chem Lett, 2018).

Structures are written as SMILES. Active and inactive are the calls of the source. No cut-off for these calls is given here.

Experiment [1] has as its system A549. Put plainly: Antiproliferative activity against human A549 cells assessed as inhibition of cell proliferation at 6 uM after 72 hrs by MTT assay relative to control. It counts as functional. Conditions: for inhibition at 6 µM: A549, 72 h.
Experiment [2] deals with A549. Put plainly: Antiproliferative activity against human A549 cells assessed as inhibition of cell proliferation at 2 uM after 72 hrs by MTT assay relative to control. It counts as functional. Conditions: for inhibition at 2 µM: A549, 72 h. A general note: Tetrazolium assays rely on reduction of a dye to a coloured formazan, in cell work by metabolically active cells.

The test system of experiment [3] is A549. Briefly: Antiproliferative activity against human A549 cells assessed as inhibition of cell proliferation at 12 uM after 72 hrs by MTT assay relative to control. It is filed as functional. Conditions: for inhibition at 12 µM: A549, 72 h.
For experiment [4], the system named is NCI-H1975. Put plainly: Antiproliferative activity against human NCI-H1975 cells assessed as inhibition of cell proliferation at 6 uM after 72 hrs by MTT assay relative to control. It counts as functional. As to conditions: for inhibition at 6 µM: NCI-H1975, 72 h.
Experiment [5] addresses [Pyruvate dehydrogenase (acetyl-transferring)] kinase isozyme 1, mitochondrial (Homo sapiens, UniProt Q15118). Put plainly: Inhibition of recombinant human N-terminal His6/Sumo-tagged PDK1 (29 to 436 residues) expressed in Escherichia coli BL21 at 1 uM by kinase-glo luminescence assay relative to control.
Experiment [6] concerns NCI-H1650. Put plainly: Antiproliferative activity against human NCI-H1650 cells assessed as inhibition of cell proliferation at 6 uM after 72 hrs by MTT assay relative to control. It counts as functional. As to conditions: for inhibition at 6 µM: NCI-H1650, 72 h.
Experiment [7] is filed under the species Sus scrofa. Put plainly: Inhibition of porcine PDK1 assessed as activation of pyruvate dehydrogenase complex at 1 uM measured after 3 mins.
Experiment [8] deals with NCI-H1650. Briefly: Antiproliferative activity against human NCI-H1650 cells assessed as inhibition of cell proliferation at 12 uM after 72 hrs by MTT assay relative to control. It counts as functional. As to conditions: for inhibition at 12 µM: NCI-H1650, 72 h.
The test system of experiment [9] is NCI-H1975. Put plainly: Antiproliferative activity against human NCI-H1975 cells assessed as inhibition of cell proliferation at 12 uM after 72 hrs by MTT assay relative to control. It is filed as functional. As to conditions: for inhibition at 12 µM: NCI-H1975, 72 h.
Experiment [10] has as its system NCI-H1975. Briefly: Antiproliferative activity against human NCI-H1975 cells assessed as inhibition of cell proliferation at 2 uM after 72 hrs by MTT assay relative to control. It counts as functional. Conditions: for inhibition at 2 µM: NCI-H1975, 72 h.
Experiment [11] has as its system NCI-H1650. Put plainly: Antiproliferative activity against human NCI-H1650 cells assessed as inhibition of cell proliferation at 2 uM after 72 hrs by MTT assay relative to control. It is filed as functional. As to conditions: for inhibition at 2 µM: NCI-H1650, 72 h.

What is called inhibition is the relative decrease from the control value, in per cent. On to `O=C(Oc1ccccc1)C(Cl)Cl`, for which the inhibition result in [1], in [2], in [3], in experiment [4], in experiment [5] and in experiment [6] was “inactive” throughout. For the same molecule, the inhibition result in experiment [7], in [8], in [9], in experiment [10] and in experiment [11] was “inactive” in each case.
For the molecule `CC(C)Oc1ccc(C(=O)CCl)cc1[N+](=O)[O-]`, the inhibition at 6 µM in [1] was determined as 14.8%; in [4] it was 27.7%; in experiment [6], 24.8%. Further, the inhibition entry in experiment [2], in [10] and in [11] was “inactive” throughout. Also, the inhibition at 12 µM worked out at 38.9% in [3], 51.4% in experiment [8] and 85.6% in experiment [9]. The inhibition entry in [5] and in experiment [7] was “Active” in each case.
On to `O=C(c1ccc(OCCCBr)c([N+](=O)[O-])c1)C(Cl)Cl`, for which the inhibition at 6 µM in [1] stood at 84.3%; in [4], 94.5%; in experiment [6], 48.1%. Also, the inhibition at 2 µM in experiment [2] came to 26.8%; in experiment [10], 60.8%; in experiment [11], 11.5%. Also, the inhibition at 12 µM in [3] amounted to 97.7%; in experiment [8], 74.6%; in experiment [9], 99%. The inhibition entry in experiment [5] and in [7] was “Active” each time.
For the molecule `O=C(c1ccco1)C(Cl)Cl`, the inhibition at 6 µM was 35.8% in [1], 58.6% in experiment [4] and 48.9% in [6]. In addition, the inhibition at 2 µM in experiment [2] was determined as 8.9%; in experiment [10] it was 31.2%; in experiment [11], 21.4%. Further, the results for the inhibition at 12 µM in experiment [3], in experiment [8] and in experiment [9] were 79.8%, 85.7% and 94.5%, respectively. For the same molecule, the inhibition result in experiment [5] is “inactive”. For the same molecule, the inhibition in experiment [7] was 2.5%.
For `O=C(c1ccncc1)C(Cl)Cl`, the values for the inhibition at 6 µM in [1], in [4] and in [6] were 6.6%, 41.6% and 34.4%, respectively. For the same molecule, the inhibition at 2 µM was 2.1% in experiment [2], 2.29% in experiment [10] and 15.6% in experiment [11]. The inhibition at 12 µM came to 21.3% in [3], 80.3% in experiment [8] and 91.7% in experiment [9]. In addition, the inhibition entry in [5] was “inactive”. In addition, the inhibition in experiment [7] is 8.9%.
`Cc1ccccc1C(=O)C(Cl)Cl`: the results for the inhibition at 6 µM in [1], in [4] and in experiment [6] were 62.2%, 69.8% and 46.7%, respectively. Moreover, the inhibition at 2 µM in experiment [2] worked out at 23.7%; in [10], 39.8%; in [11] it was 27.2%. For the same molecule, the values for the inhibition at 12 µM in experiment [3], in experiment [8] and in experiment [9] were 79.8%, 69.6% and 93%, respectively. Besides, in experiment [5], the inhibition result is “inactive”.
Regarding `Cc1cc(C(=O)C(Cl)Cl)ccc1Cl`, the values for the inhibition at 6 µM in experiment [1], in experiment [4] and in experiment [6] were 51.7%, 97.8% and 79.7%, respectively. Moreover, the inhibition at 2 µM in experiment [2] was determined as 13.2%; in experiment [10], 46.7%; in experiment [11], 38.8%. Moreover, the values for the inhibition at 12 µM in experiment [3], in experiment [8] and in experiment [9] were 81%, 98.8% and 99.2%, respectively. In addition, the inhibition in [5] is 10.2%.
`CCc1ccc(C(=O)C(Cl)Cl)cc1`: the inhibition at 6 µM came out at 81.4% in [1], 97.6% in experiment [4] and 79.1% in experiment [6]. Further, the inhibition at 2 µM was found to be 31.5% in experiment [2], 55.4% in experiment [10] and 30.7% in experiment [11]. In addition, the inhibition at 12 µM was determined as 92.8% in [3], 99.3% in [8] and 96.5% in experiment [9]. In experiment [5], the inhibition came out at 44%.
With `O=C(c1ccc(Cl)c([N+](=O)[O-])c1)C(Cl)Cl`, the inhibition at 6 µM turned out to be 86.7% in experiment [1], 99.8% in experiment [4] and 100% in experiment [6]. In addition, the inhibition at 2 µM in experiment [2] was 34.7%; in [10], 98.4%; in [11], 96.3%. Besides, the inhibition at 12 µM was determined as 99.8% in [3], 100% in experiment [8] and 100% in experiment [9]. Moreover, in experiment [5], the inhibition was 41.7%.
`CCCCc1ccc(C(=O)C(Cl)Cl)cc1[N+](=O)[O-]`: the values for the inhibition at 6 µM in experiment [1], in experiment [4] and in [6] were 12%, 65.2% and 57.2%, respectively. Further, the inhibition entry in experiment [2] and in experiment [5] was “inactive” in each case. Further, the inhibition at 12 µM in experiment [3] was found to be 56.9%; in [8] it was 97.5%; in experiment [9] it was 100%. Moreover, the inhibition at 2 µM in experiment [10] worked out at 39.8%; in [11], 22.3%.
On to `O=C(c1ccccc1Cl)C(Cl)Cl`, for which the values for the inhibition at 6 µM in [1], in experiment [4] and in experiment [6] were 4.6%, 39% and 19.7%, respectively. Further, the inhibition result in [2] and in [5] was “inactive” each time. The inhibition at 12 µM in [3] stood at 27.9%; in experiment [8] it was 42.9%; in experiment [9] it was 71%. Further, the inhibition at 2 µM in experiment [10] is 12.6%; in [11], 10.3%.
As to `O=C(c1ccccc1[N+](=O)[O-])C(Cl)Cl`, the inhibition at 6 µM in experiment [1] is 4.4%; in experiment [4], 61.5%; in experiment [6] it was 22.4%. Also, the figures for the inhibition at 2 µM in experiment [2] and in [10] were 1.9% and 4.8%, respectively. Also, the inhibition at 12 µM came out at 6.1% in experiment [3], 49.9% in experiment [8] and 93.7% in experiment [9]. Besides, the inhibition result in experiment [5] and in [11] was “inactive” in each case.
`O=C(c1ccccc1C(F)(F)F)C(Cl)Cl`: the inhibition at 6 µM amounted to 9% in experiment [1], 2.1% in experiment [4] and 12.7% in experiment [6]. Moreover, the inhibition at 2 µM in [2] was found to be 3%; in experiment [11], 8.1%. In addition, the inhibition at 12 µM in [3] is 8.3%; in [8], 16.7%; in experiment [9] it was 10.2%. Moreover, the inhibition result in experiment [5] and in experiment [10] was “inactive” each time.
As to `COc1ccc(C(=O)C(Cl)Cl)cc1`, the figures for the inhibition at 6 µM in experiment [1], in [4] and in [6] were 50.1%, 95.8% and 56.8%, respectively. The inhibition at 2 µM in experiment [2] is 7.5%; in experiment [10] it was 35.1%; in [11] it was 32.5%. Further, the inhibition at 12 µM in [3] was found to be 86.1%; in experiment [8], 84.9%; in experiment [9], 98.3%. The inhibition in experiment [5] lay in the range of 19.7 to 67.9%.
